According to patent US6716819B2, “Use of xylitol to reduce ionic strength and activate endogenous antimicrobials for prevention and treatment of infections” (University of Iowa Research Foundation, priority 2000, dated 2004):

Tests used:
CF epithelia = assay: ASL Cl- concentration and volume (isotope method); format: cell-based, human
Experimental: FIGS. 3(A-B). The effect of apical xylitol on non-CF and CF ASL Cl^− concentration and volume. Five μl of isosmotic xylitol or saline solution were applied to the apical surface. Twenty-four hours later, ASL Cl^− concentration (A) and volume (B) were determined. Asterisk indicates a difference between the saline and the xylitol solutions, p<0.05. N=15 to 18 from 3 CF and 3 non-CF specimens.
Airway epithelial cells were isolated from tracheal and bronchial tissue. […] All epithelia were evaluated with scanning electron microscopy for the development of a ciliated apical surface.
The ASL Cl^− concentration was measured as previously described (Zabner, J., J. J. Smith, P. H. Karp, J. H. Widdicombe, and M. J. Welsh. 1998. Loss of CFTR chloride channels alters salt absorption by cystic fibrosis airway epithelia in vitro. Mol. Cell. 2:397-403). […] The ratio of ^36Cl to ^3H2O was determined by liquid scintillation. […] From these measurements, it was determined the ^3H2O activity per μl of water and the cpm of ^36Cl per mole of Cl^− in the basolateral medium. ASL volume was calculated from the ASL ^3H2O collected divided by the ratio of ^3H2O activity per μl of basolateral medium. Chloride content was calculated from the ASL ^36Cl collected divided by the ratio of ^36Cl per mole of Cl^− in the basolateral medium ASL Cl^− concentration was calculated from the Cl^− content divided by the volume of ASL. […]

P. aeruginosa = assay: Antibiotic effect in Lauria-Bertani (rich) media; format: cell-based; conditions: Lauria-Bertani media with 100 mM xylitol
Experimental: (§1) FIGS. 5(A-G). Effect of xylitol on growth of different airway pathogens. A, B and C. Growth of P. aeruginosa (A), S. aureus, (B), and coagulase-negative Staphylococcus (C) were measured as O. D. M9 media alone is indicated by open triangle. Xylitol (closed circle), or succinate, mannitol, or sucrose (open circles), were added to M9 media at 100 mM as indicated. D. Nasal swabs were collected and cultured for 3 days in Lauria-Bertani media (open circles), in minimal M9 media (open squares), or in M9 media supplemented with 100 mM xylitol (closed circles). E, F and G. P. aeruginosa (E), S. aureus (F), and coagulase-negative Staphylococcus (G) were cultured in Lauria-Bertani media alone (open triangles), Lauria-Bertani media with 100 mM xylitol (closed circles), and Lauria-Bertani media containing tobramycin or levofloxacin (open circles).
(§2) To test the effect of xylitol on growth of different airway pathogens in a carbon-starved media, P. aeruginosa, S. aureus, and coagulase-negative Staphylococcus were grown overnight in Lauria-Bertani medium. The bacteria were then centrifuged and resuspended in M9 media containing either 100 mM succinate, mannitol, or sucrose, respectively, and grown overnight at 37° C. The bacteria were centrifuged and resuspended in M9 media alone. M9 media containing 100 mM xylitol, or 100 mM of the indicated metabolizable sugar, as positive control. The optical density (O.D.) was measured after 0, 1, 2, and 4 hours at 600 nm on a Beckman DU640 Spectrophotometer (Schaumburg, Ill.). To test the antibiotic effect of xylitol, P. aeruginosa, S. aureus, and coagulase-negative Staphylococcus were grown overnight in Lauria-Bertani medium. The bacteria were then centrifuged and resuspended in Lauria-Bertani media with and without 100 mM xylitol. As a positive control, antibiotics with specific activity to each of the bacteria were added to the media (40 μg/ml tobramycin or 40 μg/ml levofloxacin).

S. aureus = assay: Antibiotic effect in Lauria-Bertani (rich) media; format: cell-based; conditions: Lauria-Bertani media with 100 mM xylitol
Experimental: as §1, §2

[1] = tested on: coagulase-negative Staphylococcus; assay: Antibiotic effect in Lauria-Bertani (rich) media; format: cell-based; conditions: Lauria-Bertani media with 100 mM xylitol
Experimental: as §1, §2

**Q.** With `OC[C@@H](O)[C@H](O)[C@@H](O)CO` [xylitol] as the molecule, how does the “estimated ASL volume” value (CF epithelia; 24 hours after 5 μl apical) read?
**A.** increased

**Q.** And the “ASL Cl- concentration” value (CF epithelia; 24 hours after 5 μl isosmotic xylitol solution apical)?
**A.** fell to values observed in non-CF epithelia

**Q.** And the “inhibition of growth of P. aeruginosa” value (P. aeruginosa)?
**A.** did not inhibit the growth

**Q.** What about the “inhibition of growth of S. aureus” value (S. aureus) of the same molecule?
**A.** did not inhibit the growth

**Q.** What about the “inhibition of growth of coagulase-negative Staphylococcus” value [1] of the same molecule?
**A.** did not inhibit the growth
